Data on six molecules can be found in ChEMBL document CHEMBL1138685, “Molecular recognition in purinergic receptors. 2. Diastereoselectivity of the h-P2Y1-receptor” (J Med Chem, 2004).

By EC50 is commonly meant the midpoint of the concentration-response curve.

The target of this assay is P2Y purinoceptor 1 (Homo sapiens) (UniProt P47900). In words: Concenthumanion required for calcium mobilization at human purinergic 2Y1 receptor expressed in HEK 293 cells. (In general: Calcium assays in cells follow changes in intracellular calcium, usually with a dye or a luminescent sensor.)
Chain of P2Y purinoceptor 1 (Homo sapiens) (P47900 whole entry, looked up): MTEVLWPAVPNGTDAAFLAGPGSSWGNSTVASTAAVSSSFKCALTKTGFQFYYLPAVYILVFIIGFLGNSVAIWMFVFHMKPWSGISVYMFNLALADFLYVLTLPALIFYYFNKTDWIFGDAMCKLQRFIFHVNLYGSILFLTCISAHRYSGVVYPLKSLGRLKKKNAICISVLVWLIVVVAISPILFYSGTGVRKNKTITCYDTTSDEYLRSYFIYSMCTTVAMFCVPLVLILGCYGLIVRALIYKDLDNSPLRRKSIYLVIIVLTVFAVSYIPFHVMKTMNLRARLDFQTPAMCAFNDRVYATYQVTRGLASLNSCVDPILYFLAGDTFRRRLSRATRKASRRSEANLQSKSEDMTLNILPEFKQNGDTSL
As to `Nc1ncnc2c1ncn2C1O[C@H](CO[P@@](O)(=S)OP(=O)(O)OP(=O)(O)O)[C@@H](O)[C@H]1O` (stereo partly specified), the EC50 stood at 75 nM.

For the molecule `CSc1nc(N)c2ncn(C3O[C@H](CO[P@@](O)(=S)OP(=O)(O)OP(=O)(O)O)[C@@H](O)[C@H]3O)c2n1` (stereo partly specified), the EC50 was determined as 20 nM. For the molecule `Nc1ncnc2c1ncn2C1O[C@H](CO[P@](O)(=S)OP(=O)(O)OP(=O)(O)O)[C@@H](O)[C@H]1O` (stereo partly specified), the EC50 is 9.4 nM.

As to `CSc1nc(N)c2ncn(C3O[C@H](CO[P@](O)(=S)OP(=O)(O)OP(=O)(O)O)[C@@H](O)[C@H]3O)c2n1` (stereo partly specified), the EC50 worked out at 1 nM. As for `BP(=O)(OC[C@H]1O[C@@H](n2cnc3c(N)nc(SC)nc32)[C@H](O)[C@@H]1O)OP(=O)(O)OP(=O)(O)O` (stereo partly specified), the EC50 worked out at 53 nM. For `CSc1nc(N)c2ncn([C@@H]3O[C@H](COP(=O)(O)OP(=O)(O)OP(=O)(O)O)[C@@H](O)[C@H]3O)c2n1`, the EC50 was found to be 1 nM.
